Tests used:
[1] = tested on: Escherichia coli ATCC 25922; assay: Broth microdilution MIC; assay type: cell-based; conditions: for MIC: Escherichia coli, ATCC25922, read-out: Minimum Inhibitory Concentrations (MIC)
[2] = tested on: Salmonella enterica (food isolate); assay: Broth microdilution MIC; assay type: cell-based; conditions: read-out: Minimum Inhibitory Concentrations (MIC)
[3] = tested on: Staphylococcus aureus ATCC 33591 (methicillin-resistant); assay: Broth microdilution MIC; assay type: cell-based; conditions: for MIC: Staphylococcus aureus, ATCC33591, read-out: Minimum Inhibitory Concentrations (MIC)
[4] = tested on: Staphylococcus aureus Clinical/MRSA; assay: Broth microdilution MIC; assay type: cell-based; conditions: for MIC: Staphylococcus aureus, MRSA, read-out: Minimum Inhibitory Concentrations (MIC)
[5] = tested on: Bacillus cereus ATCC 14579; assay: Broth microdilution MIC; assay type: cell-based; conditions: ATCC14579, read-out: Minimum Inhibitory Concentrations (MIC), Bacillus cereus ATCC 14579
[6] = tested on: Pseudomonas aeruginosa ATCC 27853; assay: Broth microdilution MIC; assay type: cell-based; conditions: Pseudomonas aeruginosa, ATCC27853, read-out: Minimum Inhibitory Concentrations (MIC)
[7] = tested on: Listeria monocytogenes ATCC 7644; assay: Broth microdilution MIC; assay type: cell-based; conditions: Listeria monocytogenes, ATCC7644, read-out: Minimum Inhibitory Concentrations (MIC), Listeria monocytogenes ATCC 7644
[8] = tested on: Enterococcus faecalis ATCC 29212; assay: Broth microdilution MIC; assay type: cell-based; conditions: for MIC: Enterococcus faecalis, ATCC29212, read-out: Minimum Inhibitory Concentrations (MIC), Enterococcus faecalis ATCC 29212
[9] = tested on: Staphylococcus aureus ATCC 25923; assay: Broth microdilution MIC; assay type: cell-based; conditions: for MIC: Staphylococcus aureus, ATCC25923, read-out: Minimum Inhibitory Concentrations (MIC)
[10] = tested on: Staphylococcus aureus ATCC 25923; assay: Biofilm inhibition assay (crystal violet); assay type: cell-based
Experimental: (§1) The ability of the candidate compounds to inhibit biofilm formation was evaluated by determining the minimum biofilm inhibitory concentration (MBIC) against the biofilm-forming strains Staphylococcus aureus ATCC 25923 and Listeria monocytogenes ATCC 7644. Overnight bacterial cultures were diluted in fresh, pre-warmed Mueller–Hinton broth (MHB) and incubated at 37 °C with constant shaking at 220 rpm. Once the cultures reached the exponential growth phase (OD600 = 0.3–0.5), they were standardized to a final concentration of 4 × 10^6 CFU/mL.
(§2) Plates were incubated at 37 °C for 24 to 48 h, depending on the bacterial strain. After incubation, the planktonic cells were carefully aspirated to preserve the integrity of the biofilm layer. Wells were gently rinsed with sterile ultrapure Milli-Q water and air-dried at 60 °C for 1 h to fix the biofilms. Biofilm formation was quantified using a crystal violet (CV) staining method. Wells were stained with 100 µL of 0.1% CV solution and incubated at room temperature for 1 h. Excess dye was removed by rinsing with sterile ultrapure Milli-Q water, followed by air-drying. Bound CV was solubilized with 100 µL of 70% ethanol and incubated for 30 min. The solubilized dye was transferred to a fresh plate, and absorbance was measured at 595 nm using a microplate reader (Bio-Tek EL808, Winooski, VT, USA). Absorbance values were directly proportional to biofilm biomass. Untreated bacterial cultures served as positive controls for biofilm formation, while sterile MHB served as the negative control.

[11] = tested on: Listeria monocytogenes ATCC 7644; assay: Biofilm inhibition assay (crystal violet); assay type: cell-based; conditions: L. monocytogenes
Experimental: as §1
as §2, with “Aliquots (50 µL) of the standardized bacterial suspension were inoculated into 96-well microtiter plates containing the test compounds at final concentrations of 100, 50, 25, and 12.5 µg/mL. Plates” for “Plates”

RPE1 cells = assay: Cytotoxicity MTS assay; assay type: cell-based, human; conditions: RPE1 cells, 48 h, MTS; read-out: IC50 RPE1
Experimental: (§3) The cytotoxic potential of the selected drug candidates was evaluated using the CellTiter 96® AQueous One Solution Cell Proliferation Assay (Promega, Madison, WI, USA), following the manufacturer’s protocol. Human cell lines RPE1 and HEK293 were cultured at 37 °C in a humidified incubator with 5% CO2. Test compounds were dissolved in the appropriate growth medium and serially diluted across a range of concentrations in 96-well microtiter plates. Each well was seeded with 5000 cells and incubated for 48 h under standard culture conditions. Following this incubation period, 20 µL of MTS reagent was added to each well, and the plates were further incubated for 3 h to allow for color development. Absorbance was measured at 490 nm using a microplate reader to determine cell viability. Cytotoxicity was quantified as the half-maximal inhibitory concentration (IC50), defined as the concentration of compound that reduced cell viability by 50%. […] IC50 values were calculated using GraFit 6.0 software by plotting compound concentration against absorbance and fitting the data to a sigmoidal dose–response curve.

HEK293 cells = assay: Cytotoxicity MTS assay; assay type: cell-based, human; conditions: HEK293 cells, 48 h, MTS; read-out: IC50 HEK293
Experimental: as §3

SMILES	MIC [1]	MIC [2]	MIC [3]	MIC [4]	MIC [5]	MIC [6]	MIC [7]	MIC [8]	MIC [9]	other results
O=C1C[N+]2(CCC[N+]34CCC(CC3)C(=O)C4)CCC1CC2 [2(QO)3, 1,1′-(Propane-1,3-diyl) bis(3-oxoquinuclidinium) dibromide]	> 75 µM	> 75 µM	> 75 µM	> 75 µM	> 75 µM	> 75 µM	> 75 µM	> 75 µM	> 75 µM	
CCCCCCCCCCCCNC1C[N+]2(CCCCCC[N+]34CCC(CC3)C(NCCCCCCCCCCCC)C4)CCC1CC2 (racemic) [2(QC12)6, (±)-1,1′-(Hexane-1,6-diyl) bis(3-(dodecylamino)quinuclidinium) dibromide]	38 µM	> 75 µM	19 µM	> 75 µM	> 75 µM	> 75 µM	38 µM	75 µM	75 µM	
CO/N=C(\C(=O)N[C@@H]1C(=O)N2C(C(=O)O)=C(COC(C)=O)CS[C@H]12)c1csc(N)n1 [CFX, cefotaxime, reference compound]										biofilm inhibition ([10]; S. aureus ATCC 25923, 50 µg/mL): 62%; biofilm inhibition ([11]; 12.5 µg/mL): similarly low values; inhibition at 25 µg/mL ([11]; Listeria monocytogenes, ATCC7644, 25 µg/mL, read-out: biofilm inhibition): 6%; inhibition at 50 µg/mL ([11]; Listeria monocytogenes, ATCC7644, 50 µg/mL, read-out: biofilm inhibition): > 20%; inhibition at 100 µg/mL ([11]; Listeria monocytogenes, ATCC7644, 100 µg/mL, read-out: biofilm inhibition): > 20%
CCCCCCCCCCCCNC1C[N+]2(CCC[N+]34CCC(CC3)C(NCCCCCCCCCCCC)C4)CCC1CC2 (racemic) [2(QC12)3, (±)-1,1′-(Propane-1,3-diyl) bis(3-(dodecylamino)quinuclidinium) dibromide]	> 75 µM	75 µM	75 µM	> 75 µM	> 75 µM	> 75 µM	38 µM	> 75 µM	75 µM	
CCCCCCCCCCCCCCNC1C[N+]2(CCCC[N+]34CCC(CC3)C(NCCCCCCCCCCCCCC)C4)CCC1CC2 (racemic) [2(QC14)4, (±)-1,1′-(Butane-1,4-diyl) bis(3-(tetradecylamino)quinuclidinium) dibromide]	> 75 µM	> 75 µM	75 µM	> 75 µM	> 75 µM	> 75 µM	> 75 µM	> 75 µM	> 75 µM	
O=C1C[N+]2(CCCC[N+]34CCC(CC3)C(=O)C4)CCC1CC2 [2(QO)4, 1,1′-(Butane-1,4-diyl) bis(3-oxoquinuclidinium) dibromide]	> 75 µM	> 75 µM	> 75 µM	> 75 µM	> 75 µM	> 75 µM	> 75 µM	> 75 µM	> 75 µM	
CCCCCCCCCCCC[N+](C)(C)Cc1ccccc1.[Br-] [BAB, benzyldodecyldimethylammonium bromide, reference compound]		50 µM								biofilm inhibition ([10]; S. aureus ATCC 25923, across all tested concentrations): > 74%; Minimum Inhibitory Concentrations (MIC) ([1]; Escherichia coli ATCC 25922): 63 µM; IC50 (RPE1 cells): 820 nM; IC50 (HEK293 cells): 3000 nM; biofilm inhibition ([11]; 12.5 µg/mL): comparable values; biofilm inhibition ([11]; 25 µg/mL): 20%; biofilm inhibition ([11]; 50 µg/mL): remaining consistent; biofilm inhibition ([11]; 100 µg/mL): 44%; Minimum Inhibitory Concentrations (MIC) ([3]; Staphylococcus aureus ATCC 33591): 25 µM; Minimum Inhibitory Concentrations (MIC) ([4]; Staphylococcus aureus Clinical/MRSA): 25 µM; Minimum Inhibitory Concentrations (MIC) ([8]; Enterococcus faecalis ATCC 29212): 15 µM; Minimum Inhibitory Concentrations (MIC) ([9]; Staphylococcus aureus ATCC 25923): 10 µM
O=C1C[N+]2(CCCCCC[N+]34CCC(CC3)C(=O)C4)CCC1CC2 [2(QO)6, 1,1′-(Hexane-1,6-diyl) bis(3-oxoquinuclidinium) dibromide]	> 75 µM	> 75 µM	> 75 µM	> 75 µM	> 75 µM	> 75 µM	> 75 µM	> 75 µM	> 75 µM	
CCCCCCCCCCCCCCNC1C[N+]2(CCC[N+]34CCC(CC3)C(NCCCCCCCCCCCCCC)C4)CCC1CC2 (racemic) [2(QC14)3, (±)-1,1′-(Propane-1,3-diyl) bis(3-(tetradecylamino)quinuclidinium) dibromide]	> 75 µM	> 75 µM	75 µM	> 75 µM	> 75 µM	> 75 µM	38 µM	> 75 µM	75 µM	
CCCCCCCCCCCCNC1C[N+]2(CCCC[N+]34CCC(CC3)C(NCCCCCCCCCCCC)C4)CCC1CC2 (racemic) [2(QC12)4, (±)-1,1′-(Butane-1,4-diyl) bis(3-(dodecylamino)quinuclidinium) dibromide]	> 75 µM	> 75 µM	75 µM	> 75 µM	> 75 µM	> 75 µM	75 µM	> 75 µM	> 75 µM	
